Results as given in the NIST ThermoML archive (doi:10.1021/acs.jced.8b00058).
Values joined by “and” are separate entries in the source; they are usually repeats but may differ in a detail not shown here. Identical values can stand only once. ± gives the expanded uncertainty stated by the source.

Assay: mn = molality of the nth substance listed, in mol/kg
Details: 100 kPa, Liquid; for speed of sound: Frequency=3 MHz, Single path-length method; for mass density: Vibrating tube method

OCCO [1,2-ethanediol] + O
Details	mass density, m1 = 0.09889 [kg/m3]	mass density, m1 = 0.1989 [kg/m3]	mass density, m1 = 0.2997 [kg/m3]	mass density, m1 = 0.3948 [kg/m3]	mass density, m1 = 0.5016 [kg/m3]	speed of sound, m1 = 0.09889 [m/s]	speed of sound, m1 = 0.1989 [m/s]	speed of sound, m1 = 0.2997 [m/s]	speed of sound, m1 = 0.3948 [m/s]	speed of sound, m1 = 0.5016 [m/s]
293.15 K	999.059 ± 1	999.884 ± 1	1000.68 ± 1	1001.4 ± 1	1002.2 ± 1	1485.5 ± 2	1488.3 ± 2	1491.2 ± 2	1493.9 ± 2	1496.8 ± 2
298.15 K	997.877 ± 1	998.688 ± 1	999.473 ± 1	1000.18 ± 1	1000.96 ± 1	1498.9 ± 2	1501.7 ± 2	1504.3 ± 2	1506.6 ± 2	1509.1 ± 2
303.15 K	996.471 ± 1	997.262 ± 1	998.033 ± 1	998.733 ± 1	999.48 ± 1	1511.1 ± 2	1513.8 ± 2	1516.2 ± 2	1518.7 ± 2	1521.2 ± 2
308.15 K	994.84 ± 1	995.613 ± 1	996.362 ± 1	997.038 ± 1	997.764 ± 1	1521.8 ± 2	1524 ± 2	1526.2 ± 2	1528.3 ± 2	1530.3 ± 2

Nc1ccccc1 [aniline] + O
Details	mass density, 293.15 K	mass density, 298.15 K	mass density, 303.15 K	mass density, 308.15 K	speed of sound, 293.15 K [m/s]	speed of sound, 298.15 K [m/s]	speed of sound, 303.15 K [m/s]	speed of sound, 308.15 K
m1 = 0.1	998.568 ± 1 kg/m3 and 998.57 ± 1 kg/m3	997.42 ± 1 kg/m3 and 997.421 ± 1 kg/m3	995.98 ± 1 kg/m3 and 995.983 ± 1 kg/m3	994.35 ± 1 kg/m3 and 994.351 ± 1 kg/m3	1483.3 ± 2	1497.2 ± 2	1509.5 ± 2	1520.5 ± 2 m/s
m1 = 0.2	998.97 ± 1 kg/m3 and 998.972 ± 1 kg/m3	997.81 ± 1 kg/m3 and 997.813 ± 1 kg/m3	996.33 ± 1 kg/m3 and 996.326 ± 1 kg/m3	994.68 ± 1 kg/m3 and 994.684 ± 1 kg/m3	1485 ± 2	1498.7 ± 2	1510.8 ± 2	1521.9 ± 2 m/s and 1520.5 ± 2 m/s
m1 = 0.3	999.36 ± 1 kg/m3 and 999.363 ± 1 kg/m3	998.21 ± 1 kg/m3 and 998.208 ± 1 kg/m3	996.705 ± 1 kg/m3 and 996.71 ± 1 kg/m3	995.035 ± 1 kg/m3 and 995.04 ± 1 kg/m3	1486.8 ± 2	1500 ± 2	1512.1 ± 2	1521.9 ± 2 m/s and 1523.3 ± 2 m/s
m1 = 0.4	999.783 ± 1 kg/m3 and 999.78 ± 1 kg/m3	998.592 ± 1 kg/m3 and 998.59 ± 1 kg/m3	997.079 ± 1 kg/m3 and 997.08 ± 1 kg/m3	995.385 ± 1 kg/m3 and 995.39 ± 1 kg/m3	1488.6 ± 2	1502 ± 2	1513.5 ± 2	1523.6 ± 2 m/s and 1524.7 ± 2 m/s
